Experiments:
Format in all cases: in vivo
rice [1] = assay: Selectivity: damage to rice, greenhouse trial; conditions: scoring 20 days after application
[2] = tested on: Sagittaria pygmaea (SAGPY); assay: Herbicidal effect in rice, greenhouse trial, Sagittaria pygmaea; conditions: Table 5 greenhouse trial, post-emergence 1-2-leaf stage, scoring 20 days after application
Description: (§1) The herbicidal efficacy of the active compounds or active compound mixtures was scored visually using the treated plots in comparison to untreated control plots. The damage and development of all above-ground parts of the plants were recorded. Scoring was carried out using a percentage scale (100% effect=all plants killed; 50% effect=50% of the plants and the green parts of the plants killed; 0% effect=no noticeable effect=like control plot). The scores of in each case 4 plots were averaged.
(§2) If the observed activity values already exceed the formal sum of the values for the trials with the individual applications, they also exceed the expected value according to Colby which is calculated using the following formula and which is likewise considered to be an indication of synergism (cf. S. R. Colby; in Weeds 15 (1967) pp. 20 to 22): E=A+B−(A·B/100)
Seeds or rhizome pieces of monocotyledonous and dicotyledonous weeds are placed in sandy loam soil in pots, covered with soil and grown in a greenhouse under good growth conditions (temperature, atmospheric humidity, water supply). […] The compositions according to the invention, formulated as wettable powders or as emulsion concentrates, are sprayed, at various dosages, onto the green parts of the plant at an application rate of 600 to 800 l of water/ha (converted). After the test plants have been in the greenhouse for about 3 to 4 weeks under ideal growth conditions, the effect of the preparations is scored visually by comparison with untreated controls. The compositions according to the invention also have a good herbicidal post-emergence activity against a broad spectrum of economically important weed grasses and weeds.
(§3) Frequently, activities of the combinations according to the invention are observed which exceed the formal sum of the activities when the herbicides are applied individually.

rice [3] = assay: Selectivity: damage to rice, field trial
Description: The damage and development of all above-ground parts of the plants were recorded. […] The scores of in each case 4 plots were averaged.
Crop plants were grown outdoors on plots under natural outdoor conditions, and seeds or rhizome pieces of typical harmful plants were laid out or the natural weed growth was utilized.

Cyperus iria (CYPIR) = assay: Herbicidal effect in rice, field trial, Cyperus iria; conditions: Table 14 field trial, post-emergence 3-leaf stage, scoring 42 days after application
Description: as §1, §2
(§4) Crop plants were grown outdoors on plots under natural outdoor conditions, and seeds or rhizome pieces of typical harmful plants were laid out or the natural weed growth was utilized. Treatment with the compositions according to the invention was carried out after the harmful plants had emerged and the crop plants were, generally, at the 2- to 4-leaf stage; in some cases (as stated), application of individual active compounds or active compound combinations was carried out pre-emergence (cf. Example 1) or as a sequential treatment partly pre-emergence and/or post-emergence.
(§5) After the application, for example 2, 4, 6 and 8 weeks after the application, the effect of the preparations was scored visually by comparison with untreated controls (cf. scoring in Example 1). In the field trial as well, the compositions according to the invention have synergistic herbicidal activity against a broad spectrum of economically important weed grasses and broad-leaved weeds. […] Moreover, the effects in essential phases of the scoring period were above the expected values according to Colby (cf. scoring in Example 1), also indicating synergism. […]

[4] = tested on: Echinochloa colona (ECHCO); assay: Herbicidal effect in rice, field trial, Echinochloa colona; conditions: post-emergence 2-4-leaf stage
Description: as §1, §2, §4
(§6) After the application, for example 2, 4, 6 and 8 weeks after the application, the effect of the preparations was scored visually by comparison with untreated controls (cf. scoring in Example 1). In the field trial as well, the compositions according to the invention have synergistic herbicidal activity against a broad spectrum of economically important weed grasses and broad-leaved weeds. […] Moreover, the effects in essential phases of the scoring period were above the expected values according to Colby (cf. scoring in Example 1), also indicating synergism. In contrast, the crop plants were, as a consequence of the treatments with the herbicidal compositions, damaged only to a small degree, if at all.

[5] = tested on: Sesbania exaltata (SEBEX); assay: Herbicidal effect in rice, field trial, Sesbania exaltata; conditions: Table 10 field trial, post-emergence 2-4-leaf stage, scoring 28 days after application, 32 g of AS/ha
Description: as §1, §2
(§7) Crop plants were grown outdoors on plots under natural outdoor conditions, and seeds or rhizome pieces of typical harmful plants were laid out or the natural weed growth was utilized. […]
(§8) After the application, for example 2, 4, 6 and 8 weeks after the application, the effect of the preparations was scored visually by comparison with untreated controls (cf. scoring in Example 1). […]

[6] = tested on: Amaranthus retroflexus (AMARE); assay: Herbicidal effect in rice, field trial, Amaranthus retroflexus; conditions: post-emergence 2-4-leaf stage, scoring 28 days after application
Description: as §1, §2, §4, §5

[7] = tested on: Echinochloa crus-galli (ECHCG); assay: Herbicidal effect in rice, field trial, Echinochloa crus-galli
Description: as §1, §2, §4, §6

[8] = tested on: Ipomea hederaceae (IPOHE); assay: Herbicidal effect in rice, field trial, Ipomea hederaceae; conditions: Table 8 field trial, post-emergence 2-4-leaf stage, scoring 28 days after application, 30 g of AS/ha
Description: as §1, §2, §7, §8

Eleusine indica (ELEIN) = assay: Herbicidal effect in rice, field trial, Eleusine indica; conditions: Table 4 field trial, post-emergence 2-4-leaf stage, scoring 28 days after application
Description: as §1, §2, §4, §5

[9] = tested on: Echinochloa crus-galli (ECHCG); assay: Herbicidal effect in rice, greenhouse trial, Echinochloa crus-galli; conditions: Table 6 greenhouse trial, post-emergence 3-4-leaf stage, scoring 20 days after application
Description: as §1, §2
Seeds or rhizome pieces of monocotyledonous and dicotyledonous weeds are placed in sandy loam soil in pots, covered with soil and grown in a greenhouse under good growth conditions (temperature, atmospheric humidity, water supply). Three weeks after sowing, the test plants are treated at the three-leaf stage with the compositions according to the invention. The compositions according to the invention, formulated as wettable powders or as emulsion concentrates, are sprayed, at various dosages, onto the green parts of the plant at an application rate of 600 to 800 l of water/ha (converted). After the test plants have been in the greenhouse for about 3 to 4 weeks under ideal growth conditions, the effect of the preparations is scored visually by comparison with untreated controls. The compositions according to the invention also have a good herbicidal post-emergence activity against a broad spectrum of economically important weed grasses and weeds.
as §3

[10] = Table 13 field trial, post-emergence 1-2-leaf stage, scoring 28 days after application, 37.5 g of AS/ha
[11] = Table 12 field trial, post-emergence 3-leaf stage, scoring 12 days after application, 1250 g of AS/ha
[12] = Table 12 field trial, post-emergence 3-leaf stage, scoring 12 days after application, 2500 g of AS/ha
[13] = Table 12 field trial, post-emergence 3-leaf stage, scoring 12 days after application, 5000 g of AS/ha
[14] = Table 6 greenhouse trial, post-emergence 3-4-leaf stage, 18 g of AS/ha
[15] = Table 6 greenhouse trial, post-emergence 3-4-leaf stage, 37 g of AS/ha
[16] = Table 6 greenhouse trial, post-emergence 3-4-leaf stage, 75 g of AS/ha
[17] = Table 12 field trial, post-emergence 3-leaf stage, scoring 12 days after application, 20 g of AS/ha
[18] = Table 12 field trial, post-emergence 3-leaf stage, scoring 12 days after application, 40 g of AS/ha
[19] = Table 12 field trial, post-emergence 3-leaf stage, scoring 12 days after application, 80 g of AS/ha

CCN(C(=O)n1nnn(-c2ccccc2Cl)c1=O)C1CCCCC1 [(B1.15), fentrazamid]
Damage (in %) to rice (rice [1]; Table 5 greenhouse trial, post-emergence 1-2-leaf stage, 25 g of AS/ha): 0%
Damage (in %) to rice (rice [1]; Table 5 greenhouse trial, post-emergence 1-2-leaf stage, 50 g of AS/ha): 0%
Damage (in %) to rice (rice [1]; Table 5 greenhouse trial, post-emergence 1-2-leaf stage, 100 g of AS/ha): 0%
Herbicidal effect (in %) against SAGPY ([2]; 25 g of AS/ha): 0%
Herbicidal effect (in %) against SAGPY ([2]; 50 g of AS/ha): 40%
Herbicidal effect (in %) against SAGPY ([2]; 100 g of AS/ha): 80%

CC(C)Oc1cc(-n2nc(C(C)(C)C)oc2=O)c(Cl)cc1Cl [(B4.8), oxadiazon]
Damage (in %) to rice (rice [3]; in vivo): 0%
Herbicidal effect (in %) against CYPIR (Cyperus iria (CYPIR); 250 g of AS/ha): 75%

CCS(=O)(=O)Oc1ccc2c(c1)C(C)(C)CO2 [(B3.2), benfuresate]
Herbicidal effect (in %) against ECHCO ([4]; Table 2 field trial, scoring 21 days after application, 400 g of AS/ha): 0%
Damage (in %) to rice (rice [3]; in vivo): 0%

Cc1nn(-c2cc(CC(Cl)C(=O)O)c(Cl)cc2F)c(=O)n1C(F)F (stereo not drawn) [(B2.2), carfentrazone]
Herbicidal effect (in %) against SEBEX [5]: 93%
Damage (in %) to rice (rice [3]; Table 10 field trial, post-emergence 2-4-leaf stage, scoring 28 days after application, 32 g of AS/ha): 13%

CCN(CC)C(=O)SCc1ccc(Cl)cc1 [(B1.11), thiobencarb]
Herbicidal effect (in %) against AMARE ([6]; Table 7 field trial, 3000 g of AS/ha): 83%
Herbicidal effect (in %) against CYPIR (Cyperus iria (CYPIR); 1500 g of AS/ha): 78%

COc1nc(NC(=O)NS(=O)(=O)c2ccccc2C(F)(F)F)nc(C(F)(F)F)n1 [(B2.4), tritosulfuron]
Damage (in %) to rice (rice [3]; [10]): 0%
Herbicidal effect (in %) against ECHCG [7, 10]: 0%

oxadiargyl [(B4.9)]
Herbicidal effect (in %) against ECHCO ([4]; Table 3 field trial, scoring 28 days after application, 25 g of AS/ha): 33%
Herbicidal effect (in %) against ECHCO ([4]; Table 3 field trial, scoring 28 days after application, 50 g of AS/ha): 43%
Herbicidal effect (in %) against ECHCO ([4]; Table 3 field trial, scoring 28 days after application, 100 g of AS/ha): 48%

CC1(C)CON(Cc2ccccc2Cl)C1=O [(B4.2), clomazone]
Damage (in %) to rice (rice [3]; in vivo): 0%
Herbicidal effect (in %) against CYPIR (Cyperus iria (CYPIR); 300 g of AS/ha): 30%

COc1cc(OC)nc(Oc2cccc(Oc3nc(OC)cc(OC)n3)c2C(=O)ON=C(c2ccccc2)c2ccccc2)n1 [(B4.25), pyribenzoxim]
Damage (in %) to rice (rice [3]; Table 8 field trial, post-emergence 2-4-leaf stage, scoring 28 days after application, 30 g of AS/ha): 0%
Herbicidal effect (in %) against IPOHE [8]: 78%

CC1=C(c2ccccc2)C(=O)N(C(C)(C)c2cc(Cl)cc(Cl)c2)CO1 [(B4.26), oxaziclomefone]
Herbicidal effect (in %) against ELEIN (Eleusine indica (ELEIN); 30 g of AS/ha): 0%
Herbicidal effect (in %) against ELEIN (Eleusine indica (ELEIN); 60 g of AS/ha): 37%
Damage (in %) to rice (rice [3]; Table 4 field trial, post-emergence 2-4-leaf stage, scoring 28 days after application, 30 g of AS/ha): 15%
Damage (in %) to rice (rice [3]; Table 4 field trial, post-emergence 2-4-leaf stage, scoring 28 days after application, 60 g of AS/ha): 19%

CCC(=O)Nc1ccc(Cl)c(Cl)c1 [(B1.7), propanil]
Damage (in %) to rice (rice [3]; [11]): 0%
Damage (in %) to rice (rice [3]; [12]): 5%
Damage (in %) to rice (rice [3]; [13]): 5%
Herbicidal effect (in %) against ECHCG [7, 11]: 0%
Herbicidal effect (in %) against ECHCG [7, 12]: 10%
Herbicidal effect (in %) against ECHCG [7, 13]: 30%

CCOC(=O)[C@@H](C)Oc1ccc(Oc2nc3ccc(Cl)cc3o2)cc1 [(A1.1), fenoxaprop-P-ethyl]
Herbicidal effect (in %) against ECHCG ([9]; 18 g of AS/ha): 15%
Herbicidal effect (in %) against ECHCG ([9]; 37 g of AS/ha): 40%
Herbicidal effect (in %) against ECHCG ([9]; 75 g of AS/ha): 82%
Herbicidal effect (in %) against ELEIN (Eleusine indica (ELEIN); 45 g of AS/ha): 80%
Damage (in %) to rice (rice [1]; Table 5 greenhouse trial, post-emergence 1-2-leaf stage, 37.5 g of AS/ha): 0%
Damage (in %) to rice (rice [1]; Table 5 greenhouse trial, post-emergence 1-2-leaf stage, 75 g of AS/ha): 8%
Damage (in %) to rice (rice [1]; [14]): 0%
Damage (in %) to rice (rice [1]; [15]): 0%
Damage (in %) to rice (rice [1]; [16]): 3%
Herbicidal effect (in %) against ECHCO ([4]; Table 2 field trial, scoring 21 days after application, 45 g of AS/ha): 51%
Herbicidal effect (in %) against ECHCO ([4]; Table 3 field trial, scoring 28 days after application, 45 g of AS/ha): 83%
Herbicidal effect (in %) against SAGPY ([2]; 37.5 g of AS/ha): 0%
Herbicidal effect (in %) against SAGPY ([2]; 75 g of AS/ha): 0%
Damage (in %) to rice (rice [3]; Table 2 field trial, post-emergence 2-4-leaf stage, scoring 21 days after application, 45 g of AS/ha): 0%
Damage (in %) to rice (rice [3]; Table 3 field trial, post-emergence 2-4-leaf stage, scoring 28 days after application, 45 g of AS/ha): 21%
Damage (in %) to rice (rice [3]; Table 4 field trial, post-emergence 2-4-leaf stage, scoring 28 days after application, 45 g of AS/ha): 21%
Damage (in %) to rice (rice [3]; [17]): 0%
Damage (in %) to rice (rice [3]; [18]): 0%
Damage (in %) to rice (rice [3]; [19]): 5%
Herbicidal effect (in %) against ECHCG [7, 17]: 80%
Herbicidal effect (in %) against ECHCG [7, 18]: 95%
Herbicidal effect (in %) against ECHCG [7, 19]: 97%

O=C(O)COc1nc(Cl)c(Cl)cc1Cl [(B3.1), triclopyr]
Herbicidal effect (in %) against AMARE ([6]; Table 9 field trial, 50 g of AS/ha): 66%
Damage (in %) to rice (rice [3]; Table 9 field trial, post-emergence 2-4-leaf stage, scoring 28 days after application, 50 g of AS/ha): 18%

CCC/C(=N\OCC(C)Oc1ccc(Cl)cc1)C1=C(O)CC(C2CCCSC2)CC1=O (stereo not drawn) [(B1.31), clefoxidim]
Herbicidal effect (in %) against ECHCG ([9]; 18 g of AS/ha): 0%
Herbicidal effect (in %) against ECHCG ([9]; 37 g of AS/ha): 10%
Herbicidal effect (in %) against ECHCG ([9]; 75 g of AS/ha): 83%
Damage (in %) to rice (rice [1]; [14]): 0%
Damage (in %) to rice (rice [1]; [15]): 0%
Damage (in %) to rice (rice [1]; [16]): 0%
